Measured values reported in ChEMBL document CHEMBL2203012, “Anti-infective and herbicidal activity of N-substituted 2-aminobenzothiazoles” (Bioorg Med Chem, 2012).

How the values were obtained:
[1] = tested on: Candida albicans; test: Antifungal activity against Candida albicans ATCC 44859 assessed as growth inhibition after 24 hrs by CLSI M27-A2 broth microdilution method; assay type: functional; details: ATCC 44859, 24 h
[2] = (§1) Cytotoxicity against human THP1 cells assessed as cell death after 24 hrs by LDH assay; assay type: cell-based, THP-1; details: THP-1 cells, read-out: LD50
[3] = tested on: Trichophyton mentagrophytes; test: Antifungal activity against Trichophyton mentagrophytes 445 assessed as growth inhibition after 120 hrs by CLSI M38-A broth microdilution method; assay type: functional, organism-based; details: Trichophyton mentagrophytes, 445, 120 h
[4] = tested on: Staphylococcus epidermidis; test: Antibacterial activity against Staphylococcus epidermidis H 6996/08 assessed as growth inhibition after 48 hrs by broth microdilution test; assay type: functional; details: H 6996/08, 48 h
[5] = tested on: Trichosporon asahii; test: Antifungal activity against Trichosporon asahii 1188 assessed as growth inhibition after 48 hrs by CLSI M27-A2 broth microdilution method; assay type: functional; details: Trichosporon asahii, 1188, 48 h
[6] = tested on: Pichia kudriavzevii; test: Antifungal activity against Candida krusei E28 assessed as growth inhibition after 48 hrs by CLSI M27-A2 broth microdilution method; assay type: functional; details: E28, 48 h
[7] = tested on: Staphylococcus aureus; test: Antibacterial activity against methicillin-resistant Staphylococcus aureus H 5996/08 assessed as growth inhibition after 24 hrs by broth microdilution test; assay type: functional; details: H 5996/08, 24 h
[8] = Octanol-water partition coefficient, log P of the compound; assay type: physicochemical
[9] = Lipophilicity, log K of the compound in methanol-water mixture by RP-HPLC; assay type: physicochemical
[10] = tested on: Trichosporon asahii; test: Antifungal activity against Trichosporon asahii 1188 assessed as growth inhibition after 24 hrs by CLSI M27-A2 broth microdilution method; assay type: functional; details: Trichosporon asahii, 1188, 24 h
[11] = tested on: Candida albicans; test: Antifungal activity against Candida albicans ATCC 44859 assessed as growth inhibition after 48 hrs by CLSI M27-A2 broth microdilution method; assay type: functional; details: ATCC 44859, 48 h
[12] = tested on: Pichia kudriavzevii; test: Antifungal activity against Candida krusei E28 assessed as growth inhibition after 24 hrs by CLSI M27-A2 broth microdilution method; assay type: functional; details: E28, 24 h
[13] = tested on: Staphylococcus epidermidis; test: Antibacterial activity against Staphylococcus epidermidis H 6996/08 assessed as growth inhibition after 24 hrs by broth microdilution test; assay type: functional; details: H 6996/08, 24 h
[14] = tested on: Staphylococcus aureus; test: Antibacterial activity against methicillin-resistant Staphylococcus aureus H 5996/08 assessed as growth inhibition after 48 hrs by broth microdilution test; assay type: functional; details: H 5996/08, 48 h
[15] = tested on: Trichophyton mentagrophytes; test: Antifungal activity against Trichophyton mentagrophytes 445 assessed as growth inhibition after 72 hrs by CLSI M38-A broth microdilution method; assay type: functional, organism-based; details: Trichophyton mentagrophytes, 445, 72 h
[16] = tested on: Mycobacterium kansasii; test: Antimycobacterial activity against log-phase Mycobacterium kansasii CIT11/06 assessed as growth inhibition after 5 days by alamar blue assay; assay type: functional; details: CIT11/06, 120 h
[17] = tested on: THP-1; test: as §1; assay type: cell-based; details: thp-1, 24 h

| SMILES | IC80 [1] [µM] | CC50 at 24 h [2] [µM] | IC50 [3] [µM] | IC80 [4] [µM] | IC80 [5] [µM] | IC80 [6] [µM] | IC80 [7] [µM] | logP [8] | log K [9] | IC80 [10] [µM] | IC80 [11] [µM] | IC80 [12] [µM] | IC80 [13] [µM] | IC90 [14] [µM] | IC50 [15] [µM] | IC90 [16] [µM] | LD50 [17] |
| --- | --- | --- | --- | --- | --- | --- | --- | --- | --- | --- | --- | --- | --- | --- | --- | --- | --- |
| O=C(Cc1ccccc1)Nc1nc2ccccc2s1 | 3.9 | > 30 | 125 | 500 | 62.2 | 125 | 31.2 | 3.98 | 0.5413 | 31.2 | 7.81 | 62.5 | 125 | 62.2 | 15.6 | 256 |  |
| O=C(Nc1nc2ccccc2s1)c1ccccc1 | 125 | > 30 | 125 | > 500 | > 500 | > 500 | 125 | 4.04 | 0.6643 | 250 | 125 | 500 | > 500 | 500 | 62.2 | 533 |  |
| CNc1nc2ccccc2s1 | 125 |  | 62.5 | 125 | > 500 | > 500 | 500 | 2.73 | 0.3819 | 125 | 250 | 500 | 125 | 500 | 62.5 | > 1830 |  |
| CC(=O)Nc1nc2ccccc2s1 | 62.5 | > 30 | 250 | > 500 | > 500 | > 500 | 250 | 2.14 | 0.3661 | 250 | 125 | 250 | 250 | 500 | 250 | 1300 |  |
| CCCCC(=O)Nc1nc2ccccc2s1 | 31.2 | > 30 | 62.5 | 62.5 | > 125 | > 125 | 31.2 | 3.63 | 0.578 | 62.5 | 31.2 | 125 | 31.2 | 125 | 31.2 | 1090 |  |
| CC(C)CC(=O)Nc1nc2ccccc2s1 | 125 | > 30 | 62.5 | > 125 | > 125 | > 125 | 125 | 3.54 | 0.5598 | 125 | 125 | > 125 | > 125 | 125 | 62.5 | 480 |  |
| CC(C)(C)C(=O)Nc1nc2ccccc2s1 | 62.5 |  | 250 | 500 | > 500 | > 500 | 250 | 4.07 | 0.5891 | > 500 | 250 | 500 | 125 | 500 | 62.5 | 1040 | ND(Insoluble) |
| O=C(Nc1nc2ccccc2s1)C1CCCCC1 | > 125 | > 30 | > 125 | > 125 | > 125 | > 125 | > 125 | 4.11 | 0.688 | 125 | > 125 | > 125 | > 125 | > 125 | > 125 | 960 |  |
| COC(=O)Nc1nc2ccccc2s1 | 125 | 27.5 | 125 | 500 | 500 | > 250 | 250 | 2.72 | 0.4251 | 250 | 250 | > 250 | 125 | 250 | 125 | 533 |  |
| c1ccc(CNc2nc3ccccc3s2)cc1 | > 125 |  | > 125 | > 125 | > 125 | > 125 | > 125 | 4.46 | 0.6012 | 125 | > 125 | > 125 | > 125 | > 125 | > 125 |  |  |
| OC(Cn1cncn1)(Cn1cncn1)c1ccc(F)cc1F [FLUCONAZOLE] | 0.06 |  | 3.91 |  | 0.48 | 15.6 |  |  |  | 0.24 | 0.12 | 3.91 |  |  | 1.95 |  |  |
| NNC(=O)c1ccncc1 [ISONIAZID] |  |  |  |  |  |  |  |  |  |  |  |  |  |  |  | < 729 |  |
| CC1(C)S[C@@H]2[C@H](NC(=O)COc3ccccc3)C(=O)N2[C@H]1C(=O)O [PENICILLIN V] |  |  |  | 250 |  |  | 250 |  |  |  |  |  | 62.5 | 500 |  |  |  |
| NC(=O)c1cnccn1 [PYRAZINAMIDE] |  |  |  |  |  |  |  |  |  |  |  |  |  |  |  | > 812 |  |
